From EP0992240A1, “THERAPEUTIC AGENT FOR ERECTION FAILURE” (MOCHIDA PHARMACEUTICAL CO., LTD., priority 1997, dated 1998) come the findings set out here.

The target in test [1] is T1, PDE type V (Canis lupus familiaris, UniProt O77746).
T1 construct: By elution with a sodium chloride gradient (0 - 0.4 M), PDE types V and III were separated from the other isozymes; from tissue; host or cells: canine aorta
As to the kind of experiment: PDE inhibiting activity, type V. In kind it is biochemical, dog. To be noted: PDE purified from canine aorta; 1 µM substrate cGMP or cAMP; read-out: Inhibition Activity IC50 (µM) Type V.
Description: The canine aorta was minced and homogenized with a Waring Blender and a glass homogenizer in six volumes of a Tris-HCl buffer solution (pH 7.5, 20 mM) containing 2 mM magnesium acetate, 5 mM ethylenediaminetetraacetic acid (EDTA), 100 µg/mL of phenylmethylsulforyl fluoride and 15 mM 2-mercaptoethanol (2-ME), and centrifuged at 1200 x g for 30 min. […] By elution with a sodium chloride gradient (0 - 0.4 M), PDE types V and III were separated from the other isozymes. […] The resulting precipitated fraction was similarly applied to the DEAE-trisacryl column and eluted by a sodium chloride gradient (0 - 0.4 M) so as to separate PDE type I.
Specifically, a purified PDE sample was added to 50 mM Tris-HCl buffer solution (pH 7.5) containing 1 µM of substrate cGMP or cAMP (containing tritium-labelled cGMP or cAMP), 1 mM EGTA and 2 mM magnesium acetate. For PDE activity measurement, enzymatically produced 5' GMP or 5' AMP was further hydrolyzed into guanosine or adenosine with snake venom and separated from the substrate by means of an ion-exchange resin (Dowex 1-X2), followed by measuring with a scintillation counter. […] The final concentration of DMSO was adjusted to be no more than 2% in consideration of the effect on PDE activity.

Test [2] has as its system PDE type I. As to the kind of experiment: PDE inhibiting activity, type I. It is filed as biochemical, dog. Conditions: PDE purified from canine aorta; 1 µM substrate cGMP or cAMP; read-out: Inhibition Activity IC50 (µM) Type I. Here is the method: On the basis of the method of Lugnier et al. (Biochem. Pharmacol., 35, 1743-1751, 1986), PDE was purified from the aorta in a dog. The canine aorta was minced and homogenized with a Waring Blender and a glass homogenizer in six volumes of a Tris-HCl buffer solution (pH 7.5, 20 mM) containing 2 mM magnesium acetate, 5 mM ethylenediaminetetraacetic acid (EDTA), 100 µg/mL of phenylmethylsulforyl fluoride and 15 mM 2-mercaptoethanol (2-ME), and centrifuged at 1200 x g for 30 min. The supernatant was separated and salted out with ammonium sulfate which was added to 45% saturation. The resulting precipitated fraction was resuspended in a Tris-HCl buffer solution (pH 7.5, 20 mM) containing 2 mM magnesium acetate and 1 mM 2-ME, dialyzed overnight and applied to a DEAE-trisacryl column (DEAE […] M:IBF). By elution with a sodium chloride gradient (0 - 0.4 M), PDE types V and III were separated from the other isozymes. The supernatant fraction of 45% saturated ammonium sulfate was further mixed with ammonium sulfate to 65% saturation and salted out. The resulting precipitated fraction was similarly applied to the DEAE-trisacryl column and eluted by a sodium chloride gradient (0 - 0.4 M) so as to separate PDE type I.
The thus obtained PDE types V, III and I were measured for their activity in accordance with the method of Thompson et al. (Adv. Cyclic Nucleotide Res., 10, 69-72, 1979) and the method of Wells et al. (Biochim. Biophys. Acta, 384, 430-443, 1975). Specifically, a purified PDE sample was added to 50 mM Tris-HCl buffer solution (pH 7.5) containing 1 µM of substrate cGMP or cAMP (containing tritium-labelled cGMP or cAMP), 1 mM EGTA and 2 mM magnesium acetate. For PDE activity measurement, enzymatically produced 5' GMP or 5' AMP was further hydrolyzed into guanosine or adenosine with snake venom and separated from the substrate by means of an ion-exchange resin (Dowex 1-X2), followed by measuring with a scintillation counter. The activity of each test compound was determined as a percentage of the PDE activity measured when it was added as a dimethyl sulfoxide solution (DMSO) and its IC50 (50% inhibition concentration) was calculated by the probit method. The final concentration of DMSO was adjusted to be no more than 2% in consideration of the effect on PDE activity.

Regarding `CC(C)(C)OC(=O)COc1cc2c(=O)c(Cc3cccnc3)cn3c4cc(Br)ccc4c(c1)c23` [Example 32, 9-bromo-2-t-butoxycarbonylmethyloxy-5-(3-pyridylmethyl)-4H-pyrido[3,2,1-jk]carbazol-4-one], the IC50 was 0.091 µM in test [1] and over 30 µM in test [2]. For `CC(C)OC(=O)COc1cc2c(=O)c(Cc3cccnc3)cn3c4ccc(Br)cc4c(c1)c23` [Example 4, 10-bromo-2-i-propoxycarbonylmethyloxy-5-(3-pyridylmethyl)-4H-pyrido[3,2,1-jk]carbazol-4-one] the same measures were 0.0038 µM and over 30 µM.

For `COc1cc2c(=O)c(C)cn3c4ccc(Br)cc4c(c1)c23` [Example 13, 10-bromo-2-methoxy-5-methyl-4H-pyrido[3,2,1-jk]carbazol-4-one], the concentration for half-maximal inhibition (IC50) in test [1] was 0.1 µM; in test [2] it was over 100 µM.

Consider `O=c1ccn2c3ccc(Br)cc3c3cc(OCc4ccccc4)cc1c32` [Example 26, 2-benzyloxy-10-bromo-4H-pyrido[3,2,1-jk]carbazol-4-one], for which the 50% inhibitory concentration (IC50) was 0.01 µM in test [1] and over 30 µM in test [2].

As to `CC(=O)Oc1cc2c(=O)c(Cc3cccnc3)cn3c4ccccc4c(c1)c23` [Example 42, 2-acetoxy-5-(3-pyridylmethyl)-4H-pyrido[3,2,1-jk]carbazol-4-one], the values for the IC50 in test [1] and in test [2] were 0.2 µM and over 30 µM, respectively. For `O=c1ccn2c3ccc(Br)cc3c3cc(O)cc1c32` [Example 20, 10-bromo-2-hydroxy-4H-pyrido[3,2,1-jk]carbazol-4-one], in that order: 0.03 µM and over 100 µM. For `COc1cc2c(=O)ccn3c4ccc(Br)cc4c(c1)c23` [Example 19, 10-bromo-2-methoxy-4H-pyrido[3,2,1-jk]carbazol-4-one] the same measures were 0.05 µM and over 10 µM. For the compound `O=c1ccn2c3ccc(Cl)cc3c3cc(Cl)cc1c32` [Example 48, 2,10-dichlor-4H-pyrido[3,2,1-jk]carbazol-4-one], the IC50 in test [2] was over 30 µM. As for `O=c1c(Cc2ccccc2)cn2c3cc(Br)ccc3c3cc(O)cc1c32` [Example 40, 5-benzyl-9-bromo-2-hydroxy-4H-pyrido[3,2,1-jk]carbazol-4-one], the IC50 in test [1] is 0.009 µM; in test [2] it was over 30 µM. For `O=c1c(Cc2cccnc2)cn2c3ccc(Br)cc3c3cc(O)cc1c32` [Example 2, 10-bromo-2-hydroxy-5-(3-pyridylmethyl)-4H-pyrido[3,2,1-jk]carbazol-4-one] the same measures were 0.1 µM and over 30 µM. For `CC(=O)Oc1ccc2c3cccc4c(=O)c(Cc5cccnc5)cn(c2c1)c43` [Example 45, 9-acetoxy-5-(3-pyridylmethyl)-4H-pyrido[3,2,1-jk]carbazol-4-one] the same measures were 0.06 µM and over 30 µM. For `CCOC(=O)COc1cc2c(=O)c(Cc3cccnc3)cn3c4ccc(Br)cc4c(c1)c23` [Example 5, 10-bromo-2-ethoxycarbonylmethyloxy-5-(3-pyridylmethyl)-4H-pyrido[3,2,1-jk]carbazol-4-one], in that order: 0.0055 µM and over 30 µM.

For `COc1cc2c(=O)c(Cc3ccccc3)cn3c4cc(Br)ccc4c(c1)c23` [Example 39, 5-benzyl-9-bromo-2-methoxy-4H-pyrido[3,2,1-jk]carbazol-4-one], the IC50 in test [1] is 0.026 µM; in test [2] it was over 30 µM.

Consider `O=C(O)COc1cc2c(=O)ccn3c4ccc(Br)cc4c(c1)c23` [Example 24, 10-bromo-2-carboxymethyloxy-4H-pyrido[3,2,1-jk]carbazol-4-one], for which the half-maximal inhibitory concentration (IC50) is 0.19 µM in test [1] and over 30 µM in test [2]. For `Cc1cn2c3ccc(Br)cc3c3cc(OCC(=O)OC(C)C)cc(c1=O)c32` [Example 16] the same measures were 0.0017 µM and over 30 µM.

Turning to `O=c1ccn2c3ccc(Br)cc3c3cc(OCc4ncon4)cc1c32` [Example 27, 10-bromo-2-(1,2,4-oxadiazol-3-yl)methyloxy-4H-pyrido[3,2,1-jk]carbazol-4-one], the IC50 is 0.021 µM in test [1] and over 30 µM in test [2].

Consider `CCOC(=O)COc1cc2c(=O)c(C)cn3c4ccc(Br)cc4c(c1)c23` [Example 17, 10-bromo-2-ethoxycarbonylmethyloxy-5-methyl-4H-pyrido[3,2,1-jk]carbazol-4-one], for which the IC50 in test [1] was 0.0035 µM; in test [2], over 30 µM. For `O=c1ccn2c3ccc(Br)cc3c3cc(OCc4cccnc4)cc1c32` [Example 25, 10-bromo-2-(3-pyridylmethyloxy)-4H-pyrido[3,2,1-jk]carbazol-4-one] the same measures were 0.011 µM and over 100 µM. In the case of `CCOC(=O)COc1cc2c(=O)ccn3c4ccc(Br)cc4c(c1)c23` [Example 23, 10-bromo-2-ethoxycarbonylmethyloxy-4H-pyrido[3,2,1-jk]carbazol-4-one], the IC50 in test [1] was 0.002 µM; in test [2] it was over 30 µM. For `CC(C)OC(=O)COc1cc2c(=O)ccn3c4ccc(Br)cc4c(c1)c23` [Example 22, 10-bromo-2-i-propoxycarbonylmethyloxy-4H-pyrido[3,2,1-jk]carbazol-4-one], in that order: 0.0008 µM and over 30 µM. For `O=c1c(Cc2cccnc2)cn2c3ccc(Br)cc3c3cc(OCc4ccccc4)cc1c32` [Example 11, 2-benzyloxy-10-bromo-5-(3-pyridylmethyl)-4H-pyrido[3,2,1-jk]carbazol-4-one], in that order: 0.11 µM and over 30 µM. As to `O=c1c(Cc2cccnc2)cn2c3cc(Br)ccc3c3cc(OCc4cncc(CO)c4)cc1c32` [Example 36, 9-bromo-2-(5-hydroxymethyl-3-pyridylmethyloxy)-5-(3-pyridylmethyl)-4H-pyrido[3,2,1-jk]carbazol-4-one], the values for the IC50 in test [1] and in test [2] were 0.021 µM and over 30 µM, respectively. For `CC(=O)OCc1cncc(COc2cc3c(=O)c(Cc4cccnc4)cn4c5cc(Br)ccc5c(c2)c34)c1` [Example 35, 2-(5-acetoxymethyl-3-pyridylmethyloxy)-9-bromo-5-(3-pyridylmethyl)-4H-pyrido[3,2,1-jk]carbazol-4-one] the same measures were 0.088 µM and over 30 µM. For `CCCC(=O)COc1cc2c(=O)ccn3c4ccc(Br)cc4c(c1)c23` [Example 29, 10-bromo-2-(2-oxopentyloxy)-4H-pyrido[3,2,1-jk]carbazol-4-one], in that order: 0.0047 µM and over 30 µM. For `O=C(O)COc1cc2c(=O)c(Cc3cccnc3)cn3c4cc(Br)ccc4c(c1)c23` [Example 33, 9-bromo-2-carboxymethyloxy-5-(3-pyridylmethyl)-4H-pyrido[3,2,1-jk]carbazol-4-one], in that order: 0.0032 µM and over 30 µM. As to `COc1cc2c(=O)c(Cc3cccnc3)cn3c4cc(Br)ccc4c(c1)c23` [Example 30, 9-bromo-2-methoxy-5-(3-pyridylmethyl)-4H-pyrido[3,2,1-jk]carbazol-4-one], the IC50 in test [1] was 0.0047 µM; in test [2] it was over 30 µM.

Regarding `CC(=O)Oc1cc2c(=O)ccn3c4ccc(Br)cc4c(c1)c23` [Example 28, 2-acetoxy-10-bromo-4H-pyrido[3,2,1-jk]carbazol-4-one], the IC50 in test [1] is 0.1 µM; in test [2], over 100 µM. For `O=c1c(Cc2cccnc2)cn2c3ccc(Br)cc3c3cc(OCc4cccnc4)cc1c32` [Example 10, 10-bromo-5-(3-pyridylmethyl)-2-(3-pyridylmethyloxy)-4H-pyrido[3,2,1-jk]carbazol-4-one] the same measures were 0.059 µM and over 30 µM. For `CC(C)(C)OC(=O)COc1cc2c(=O)ccn3c4ccc(Br)cc4c(c1)c23` [Example 21, 10-bromo-2-t-butoxycarbonylmethyloxy-4H-pyrido[3,2,1-jk]carbazol-4-one], in that order: 0.0009 µM and over 30 µM. For `CCCC(=O)COc1cc2c(=O)c(C)cn3c4ccc(Br)cc4c(c1)c23` [Example 18, 10-bromo-2-(2-oxopentyloxy)-5-methyl-4H-pyrido[3,2,1-jk]carbazol-4-one], in that order: 0.015 µM and over 30 µM. Turning to `Cc1cn2c3ccc(Br)cc3c3cc(O)cc(c1=O)c32` [Example 14, 10-bromo-2-hydroxy-5-methyl-4H-pyrido[3,2,1-jk]carbazol-4-one], the IC50 is 0.1 µM in test [1] and over 300 µM in test [2].

Usually IC50 stands for the concentration that gives 50% inhibition.
